Results from patent US12661410B2, “Compounds for targeted degradation of RET” (C4 Therapeutics, Inc., priority 2020, dated 2026).
Changes are numbered by the printed parent chain.

How the values were obtained:
[1] = target: T1, RET (658-1114) (Homo sapiens, UniProt P07949); assay: HiBiT-Degradation, RET wild-type degradation assay (Nano-Glo HiBiT Lytic), 293T.144 cells; assay type: cell-based; conditions: for Emax / DC50: 6.0 hours; for Emax: % remaining protein, read-out: 293T.144 RET (658-1114) 6.0 hours (Emax); for DC50: half-maximal degradation concentration, read-out: 293T.144 RET (658-1114) 6.0 hours (DC50)
T1 construct: 658-1114; expressed in transfected cells; host or cells: 293T.144 (293T cells, generated in-house)
T1 sequence (P07949 658-1114): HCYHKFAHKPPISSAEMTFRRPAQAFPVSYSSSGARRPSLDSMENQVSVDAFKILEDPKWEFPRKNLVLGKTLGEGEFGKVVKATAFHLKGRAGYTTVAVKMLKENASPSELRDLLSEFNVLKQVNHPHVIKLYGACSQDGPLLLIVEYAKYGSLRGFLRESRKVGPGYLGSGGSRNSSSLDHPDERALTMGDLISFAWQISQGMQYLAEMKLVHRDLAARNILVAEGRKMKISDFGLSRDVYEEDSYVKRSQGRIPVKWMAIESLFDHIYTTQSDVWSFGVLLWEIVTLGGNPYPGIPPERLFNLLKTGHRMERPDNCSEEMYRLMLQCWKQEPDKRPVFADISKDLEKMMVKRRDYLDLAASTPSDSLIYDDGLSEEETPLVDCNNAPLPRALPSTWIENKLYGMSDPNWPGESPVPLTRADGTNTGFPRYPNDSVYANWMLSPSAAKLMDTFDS
Summary of the method: (§1)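 Degradation quantified by HiBiT lytic luminescence in 293T cells expressing tagged WT or G810R RET kinase domain after 6 h dosing up to 10 μM; DC50 and Emax fitted.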

[2] = target: T2, RET(KD: 658-1114 G810R) (Homo sapiens, UniProt P07949, G810R); assay: HiBiT-Degradation, RET G810R degradation assay (Nano-Glo HiBiT Lytic), 293T.165 cells; assay type: cell-based; conditions: for Emax / DC50: 6.0 hours; for Emax: % remaining protein, read-out: 293T.165 RET(KD: 658-1114 G810R) 6.0 hours (Emax); for DC50: half-maximal degradation concentration, read-out: 293T.165 RET(KD: 658-1114 G810R) 6.0 hours (DC50)
T2 construct: 658-1114; expressed in transfected cells; host or cells: 293T.165 (293T cells, generated in-house)
T2 sequence (P07949 658-1114 G810R): T1 sequence (P07949 658-1114) with G153R
Summary of the method: as §1

N#Cc1cnn2cc(-c3cnn([C@H]4CC[C@@H](N5CCN(c6c(F)cc(NC7CCC(=O)NC7=O)cc6F)CC5)CC4)c3)cc(-c3ccc(N4CCC5(CC4)OCc4cccnc45)nc3)c12 (single isomer, unassigned) [Compound 202, 4-(6-(5H-spiro[furo[3,4-b]pyridine-7,4′-piperidin]-1′-yl)pyridin-3-yl)-6-(1-((1s, 4s)-4-(4-(4-((2,6-dioxopiperidin-3-yl)amino)-2,6-difluorophenyl)piperazin-1-yl)cyclohexyl)-1H-pyrazol-4-yl)pyrazolo[1,5-a]pyridine-3-carbonitrile]
293T.144 RET (658-1114) 6.0 hours (IP) [nM] [1]: ++++ (<50 nM = ++++) | Emax [1]: < 30% | DC50 [1]: < 50 nM | 293T.165 RET(KD: 658-1114 G810R) 6.0 hours (IP) [nM] [2]: ++++ (<50 nM = ++++) | Emax [2]: < 30% | DC50 [2]: < 50 nM

COc1ccc(CN2[C@@H]3COC[C@H]2CN(c2ccc(-c4nc(-c5cnn([C@H]6CC[C@@H](N7CCN(c8cc9c(cc8F)c(N8CCC(=O)NC8=O)nn9C)CC7)CC6)c5)cn5ncc(C#N)c45)cn2)C3)cn1 (single isomer, unassigned) [Compound 152]
293T.144 RET (658-1114) 6.0 hours (IP) [nM] [1]: ++++ (<50 nM = ++++) | Emax [1]: < 30% | DC50 [1]: < 50 nM | 293T.165 RET(KD: 658-1114 G810R) 6.0 hours (IP) [nM] [2]: ++++ (<50 nM = ++++) | Emax [2]: < 30% | DC50 [2]: < 50 nM

COc1cc(N2CCN([C@H]3CC[C@H](n4cc(-c5cn6ncc(C#N)c6c(-c6ccc(N7C[C@H]8COC[C@@H](C7)N8CC7CCOCC7)nc6)n5)cn4)CC3)CC2)c(F)cc1NC1CCC(=O)NC1=O (single isomer, unassigned) [Compound 166]
293T.144 RET (658-1114) 6.0 hours (IP) [nM] [1]: ++++ (<50 nM = ++++) | Emax [1]: < 30% | DC50 [1]: < 50 nM | 293T.165 RET(KD: 658-1114 G810R) 6.0 hours (IP) [nM] [2]: ++++ (<50 nM = ++++) | Emax [2]: < 30% | DC50 [2]: < 100 nM

COc1cc(N2CCN([C@H]3CC[C@H](n4cc(-c5cn6ncc(C#N)c6c(-c6ccc(N7CC8COCC(C7)N8C(=O)OC(C)(C)C)nc6)n5)cn4)CC3)CC2)c(F)cc1NC1CCC(=O)NC1=O (relative stereo) [Compound 163, tert-butyl 7-[5-[3-cyano-6-[1-[4-[4-[4-[(2,6-dioxo-3-piperidyl)amino]-2-fluoro-5-methoxy-phenyl]piperazin-1-yl]cyclohexyl]pyrazol-4-yl]pyrazolo[1,5-a]pyrazin-4-yl]-2-pyridyl]-3-oxa-7,9-diazabicyclo[3.3.1]nonane-9-carboxylate]
293T.144 RET (658-1114) 6.0 hours (IP) [nM] [1]: ++++ (<50 nM = ++++) | Emax [1]: < 30% | DC50 [1]: < 50 nM | 293T.165 RET(KD: 658-1114 G810R) 6.0 hours (IP) [nM] [2]: ++++ (<50 nM = ++++) | Emax [2]: < 30% | DC50 [2]: < 100 nM

CCC1(C(=O)NC(C)C)CCN(c2ccc(-c3nc(-c4cnn(C5CCN(C(=O)CC6(O)CCN(c7ccc(NC8CCC(=O)NC8=O)cc7F)CC6)CC5)c4)cn4ncc(C#N)c34)cc2)CC1 (stereo not drawn) [Compound 121, 1-(4-(3-Cyano-6-(1-(1-(2-(1-(4-((2,6-dioxopiperidin-3-yl)amino)-2-fluorophenyl)-4-hydroxypiperidin-4-yl)acetyl)piperidin-4-yl)-1H-pyrazol-4-yl)pyrazolo[1,5-a]pyrazin-4-yl)phenyl)-4-ethyl-N-isopropylpiperidine-4-carboxamide]
293T.144 RET (658-1114) 6.0 hours (IP) [nM] [1]: ++++ (<50 nM = ++++) | Emax [1]: < 30% | DC50 [1]: < 50 nM | 293T.165 RET(KD: 658-1114 G810R) 6.0 hours (IP) [nM] [2]: ++++ (<50 nM = ++++) | Emax [2]: < 30% | DC50 [2]: < 50 nM

CC(C)Oc1ccc(CN2[C@@H]3COC[C@H]2CN(c2ccc(-c4nc(-c5cnn([C@H]6CC[C@H](N7CCN(c8c(F)cc(NC9CCC(=O)NC9=O)cc8F)CC7)CC6)c5)cn5ncc(C#N)c45)cn2)C3)cn1 (mixture of isomers) [Compound 213, 6-[1-[4-[4-[4-[(2,6-dioxo-3-piperidyl)amino]-2,6-difluoro-phenyl]piperazin-1-yl]cyclohexyl]pyrazol-4-yl]-4-[6-[rac-(1R,5S)-9-[(6-isopropoxy-3-pyridyl)methyl]-3-oxa-7,9-diazabicyclo[3.3.1]nonan-7-yl]-3-pyridyl]pyrazolo[1,5-a]pyrazine-3-carbonitrile]
293T.144 RET (658-1114) 6.0 hours (IP) [nM] [1]: ++++ (<50 nM = ++++) | Emax [1]: < 30% | DC50 [1]: < 50 nM | 293T.165 RET(KD: 658-1114 G810R) 6.0 hours (IP) [nM] [2]: +++ (<100 nM = +++) | Emax [2]: < 30% | DC50 [2]: < 100 nM
